Results: patent US20260083750A1, “SMALL MOLECULE INHIBITORS OF KRAS PROTEINS” (MERCK SHARP & DOHME LLC, priority 2022, published 2026)

Experiments:
[1] = system: SW620 cells (homozygous KRAS-G12V activating mutation); assay: Cellular phospho-ERK assay in G12V cell line; format: cell-based; conditions: Homo sapiens, SW-620, 2 hours compound incubation, ratio of p-ERK vs. total ERK, read-out: SW620 pERK IC50
Experimental: Procedure for Cellular Phospho-ERK Assay in G12D and G12V Cell Lines
PANC08.13 cells (ATCC® CRL-2551™), containing homozygous KRAS-G12D activating mutation, were cultured in growth medium made of RPMI1640-GlutaMAX™—I (ThermoFisher Scientific 61870) containing 15% heat inactivated fetal bovine serum (ThermoFisher Scientific 10091148)). SW620 cells (ATCC® […]), containing homozygous KRAS-G12V activating mutation, were cultured in growth medium that contains RPMI 1640-GlutaMAX™—I (ThermoFisher Scientific 61870) containing 10% heat inactivated fetal bovine serum (ThermoFisher Scientific 10091148).
Cells for the assay were harvested in growth medium after TrypLE (ThermoFisher scientific 12604021) digestion and were seeded in a 384-well collagen coated cell culture plate (Corning 356702) at a density of 10,000-15,000 cells/20 uL/well, and incubated at 37° C., 5% CO2 overnight. The compound (with 10 mM stock concentration) dose-response titrations were prepared [30 μM final ERK detection assay concentration and 1:3 dilutions, 10-point dose response] and appropriate amounts (270 nL) of test compounds were dispensed in a 384-well intermediate plate using an Echo 550 liquid handler. 30 uL/well of RPMI medium 1640-GlutaMAX™—I was added to the intermediate plate and the contents of the intermediate plate (10 uL/well) were then transferred to the 384-well collagen coated cell culture plate, which was incubated at 37° C., 5% CO2 for 2 hours. After removal of medium from the collagen coated cell culture plate, cells were lysed in lysis buffer from Alpha SureFire® Ultra™ Multiplex p-ERK and total ERK assay kit (PerkinElmer MPSU-PTERK) containing Halt™ Protease and Phosphatase inhibitor cocktail (ThermoFisher Scientific 78446) at room temperature with constant shaking at 300 rpm for 30 minutes. The cell lysates were then transferred to an OptiPlate-384 plate (PerkinElmer 6005620), and the phosphorylation of ERK (p-ERK) and total ERK levels were detected by Alpha SureFire® Ultra™ Multiplex p-EEK kit and total ERK assay kit (PerkinElmer MPSU-PTERK) following the manufacturer's protocol. Assay plates were read on a EnVision Multimode Plate Reader (PerkinElmer), and the ratio of p-ERK vs. total ERK in each well was used as the final readout. Dose response curves were analyzed using a 4-parameter logistic model to calculate IC50 values using Spotfire software.

[2] = biological target: NRAS (Homo sapiens, UniProt P01111); assay: SOS-catalyzed nucleotide exchange assay (Procedure A, TR-FRET); format: biochemical; conditions: 60 min preincubation, SOS + GTP, read-out: NRAS GNE IC50
Chain of NRAS (P01111 with tags, fused parts or gaps): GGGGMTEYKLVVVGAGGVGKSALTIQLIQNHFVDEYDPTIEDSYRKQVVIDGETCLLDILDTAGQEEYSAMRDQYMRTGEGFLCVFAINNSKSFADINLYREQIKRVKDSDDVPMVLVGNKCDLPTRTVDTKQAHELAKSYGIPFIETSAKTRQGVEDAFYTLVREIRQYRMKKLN
Text: (§1) Procedure for SOS-Catalyzed Nucleotide Exchange Assay for KRAS-G12C/D/V, G13D, HRAS, and NRAS (Procedure A)
(§2) Recombinant KRAS-G12C protein used in this assay has an additional triple mutation (C51S/C80L/C118S), whereas KRAS-G12D/V, G13D, HRAS and NRAS are in context of their WT protein sequence background. Specifically, the SOS-catalyzed nucleotide exchange assay utilizes a preformed TR-FRET complex containing a specific biotinylated RAS protein (KRAS-G12C/V/D, G13D, HRAS, NRAS; described above) with Bodipy-GDP, and Terbium-streptavidin. Compounds are preincubated with this complex for 60 minutes. Subsequently, recombinant human SOS protein and unlabeled GTP are added to initiate the exchange reaction. Small molecule inhibitors stabilize the Bodipy-GDP complex whereas the untreated protein rapidly exchanges Bodipy-GDP for unlabeled GTP resulting in reduced TR-FRET signal.
(§3) To assemble the preformed TR-FRET complexes, each biotinylated RAS protein is diluted to 2 μM in an EDTA Buffer (20 mM HEPES pH 7.5, 50 mM sodium chloride, 10 mM EDTA, and 0.01% Tween) and incubated at room temperature for one hour. This mixture is then further diluted to 90 nM in an Assay Buffer (20 mM HEPES pH 7.5, 150 mM sodium chloride, 10 mM magnesium chloride, and 0.005% Tween) containing 15 nM of Terbium-Streptavidin (Invitrogen, catalog #PV3577) and 900 nM of Bodipy-GDP (Invitrogen, catalog #G22360) and incubated at room temperature for six hours. It should be noted that this preformed TR-FRET complex for each of the RAS protein were made ahead of time, aliquoted and stored at −80° C. until the day of the experiment.
(§4) Each test compound (10 mM stock in DMSO) is diluted in DMSO to make a final-10-point, 3-fold dilution and is acoustically dispensed into a 384-well assay plate (Corning, catalog #3820) using an Echo 550 (Labcyte). Each well of the assay plate receives 3 μL of a specific 3× RAS preformed TR-FRET complex and 3 μL of Assay Buffer and is incubated at room temperature for 60 minutes (preincubation time). Each well then receives 3 μL of 3× recombinant human SOS protein and GTP (Sigma, G8877) in Assay Buffer and is incubated at room temperature for 30 minutes (G13D), 60 minutes (G12C/D, H/NRAS) or 90 minutes for G12V. The final reaction in each well of […] consists of 3 mM GTP, specific Ras and SOS proteins in the following concentrations: KRAS-G12C/SOS=3 nM/40 nM, KRAS-G12D/SOS=1 nM/40 nM, KRAS-G12V/SOS=1.25 nM/160 nM, KRAS-G13D/SOS=1.25 nM/0 nM, HRAS & NRAS=1.25 nM/40 nM.
(§5) The time-resolved fluorescence resonance energy transfer (TR-FRET) signal is measured on an Envision (PerkinElmer) plate reader: Excitation filter=340 nm; emission1=495 nm; emission2=520 nm; dichroic mirror=D400/D505; delay time=[…]. The signal of each well is determined as the ratio of the emission at 520 nm to that at 495 nm. Percent effect of each well is determined after normalization to control wells containing DMSO (no effect) or a saturating concentration of inhibitor (max effect). The apparent effect as a function of compound concentration is fit to a four-parameter logistic equation.

[3] = biological target: HRAS (Homo sapiens, UniProt P01112); assay: as above; format: biochemical; conditions: 60 min preincubation, SOS + GTP, read-out: HRAS GNE IC50
Chain of HRAS (P01112 with tags, fused parts or gaps): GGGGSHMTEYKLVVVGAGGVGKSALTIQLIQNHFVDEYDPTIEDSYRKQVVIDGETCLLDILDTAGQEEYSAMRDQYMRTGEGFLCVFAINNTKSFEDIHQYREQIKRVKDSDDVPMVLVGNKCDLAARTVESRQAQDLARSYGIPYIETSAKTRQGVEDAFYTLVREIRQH
Text: as §1, §2, §3, §4, §5

[4] = system: PANC08.13 cells (homozygous KRAS-G12D activating mutation); assay: Cellular phospho-ERK assay in G12D cell line; format: cell-based; conditions: Homo sapiens, PANC-08-13, 2 hours compound incubation, ratio of p-ERK vs. total ERK, read-out: PANC 0813 pERK IC50
How it was run: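 Cells (10,000-15,000/well) were seeded overnight, then treated for 2 h at 37 °C with a 10-point 1:3 titration from 30 μM final. Lysates were assayed by AlphaLISA SureFire Ultra multiplex, with the p-ERK/total-ERK ratio as read-out; IC50 came from a 4-parameter logistic fit.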

[5] = biological target: T1, KRAS-G12C (C51S/C80L/C118S) (Homo sapiens, UniProt P01116, C118S/C51S/C80L/G12C); assay: SOS-catalyzed nucleotide exchange assay (Procedure A, TR-FRET); format: biochemical; conditions: 60 min preincubation, SOS + GTP, read-out: KRAS G12C GNE IC50
T1 construct: N-terminal biotin-acceptor peptide […]
T1 sequence (P01116 with tags, fused parts or gaps isoform P01116-2 G12C/C51S/C80L/C118S): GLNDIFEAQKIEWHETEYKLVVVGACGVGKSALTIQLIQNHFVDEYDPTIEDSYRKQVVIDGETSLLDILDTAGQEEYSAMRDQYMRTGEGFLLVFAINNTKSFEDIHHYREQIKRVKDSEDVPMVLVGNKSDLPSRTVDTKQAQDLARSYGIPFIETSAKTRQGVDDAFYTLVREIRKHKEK
How it was run: (§6)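 Preformed biotinylated RAS–Bodipy-GDP/Tb-streptavidin complex preincubated with compound 60 min at room temperature, then SOS plus GTP (3 mM final) added. Exchange times: G13D 30 min, G12C/D 60 min, G12V 90 min. Final RAS/SOS: G12C 3 nM/40 nM, G12D 1 nM/40 nM, G12V 1.25 nM/160 nM, G13D 1.25 nM/0 nM. TR-FRET 520/495 ratio, four-parameter fit.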

[6] = biological target: T2, KRAS-G13D (Homo sapiens, UniProt P01116, G13D); assay: as above; format: biochemical; conditions: 60 min preincubation, GTP, read-out: KRAS G13D GNE IC50
T2 construct: N-terminal biotin-acceptor peptide […]
T2 sequence (P01116 with tags, fused parts or gaps isoform P01116-2 G13D): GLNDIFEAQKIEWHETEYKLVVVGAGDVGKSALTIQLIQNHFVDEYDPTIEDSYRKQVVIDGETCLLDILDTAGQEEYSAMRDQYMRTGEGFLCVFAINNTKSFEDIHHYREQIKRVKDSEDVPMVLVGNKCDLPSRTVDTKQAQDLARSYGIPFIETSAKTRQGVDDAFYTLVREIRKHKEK
How it was run: as §6

[7] = biological target: T3, KRAS-G12D (Homo sapiens, UniProt P01116, G12D); assay: as above; format: biochemical; conditions: 60 min preincubation, SOS + GTP, read-out: KRAS G12D GNE IC50
T3 construct: N-terminal biotin-acceptor peptide […]
T3 sequence (P01116 with tags, fused parts or gaps isoform P01116-2 G12D): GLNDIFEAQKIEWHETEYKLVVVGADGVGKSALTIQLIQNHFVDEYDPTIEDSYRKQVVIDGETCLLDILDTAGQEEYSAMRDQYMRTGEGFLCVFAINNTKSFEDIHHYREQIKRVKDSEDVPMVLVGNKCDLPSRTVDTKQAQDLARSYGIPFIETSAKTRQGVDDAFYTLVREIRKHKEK
How it was run: as §6

[8] = biological target: T4, KRAS-G12V (Homo sapiens, UniProt P01116, G12V); assay: as above; format: biochemical; conditions: 60 min preincubation, SOS + GTP, read-out: KRAS G12V GNE IC50
T4 construct: N-terminal biotin-acceptor peptide […]
T4 sequence (P01116 with tags, fused parts or gaps isoform P01116-2 G12V): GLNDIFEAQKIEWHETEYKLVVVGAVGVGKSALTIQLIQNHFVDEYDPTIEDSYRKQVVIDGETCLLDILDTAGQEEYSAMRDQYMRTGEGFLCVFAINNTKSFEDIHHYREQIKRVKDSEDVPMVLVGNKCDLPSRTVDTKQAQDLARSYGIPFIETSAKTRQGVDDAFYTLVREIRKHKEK
How it was run: as §6

| Compound | IC50 [1] [nM] | IC50 [2] [nM] | IC50 [3] [nM] | IC50 [4] [nM] | IC50 [5] [nM] | IC50 [6] [nM] | IC50 [7] [nM] | IC50 [8] [nM] |
| --- | --- | --- | --- | --- | --- | --- | --- | --- |
| N#Cc1c(N)sc2c(F)ccc(-c3c(Cl)cc4c(N5CCCOCC5)nc(OC[C@@]56CCCN5C[C@H](F)C6)nc4c3F)c12 [Ex. 4, 2-amino-4-(6-chloro-8-fluoro-2-(((2R,7aS)-2-fluorotetrahydro-1H-pyrrolizin-7a(5H)-yl)methoxy)-4-(1,4-oxazepan-4-yl)quinazolin-7-yl)-7-fluorobenzo[b]thio-phene-3-carbonitrile] | 48.6 | > 11100 | > 11100 | 56.2 | 15.5 | 7.62 | 7.62 | 3.33 |
| C[C@H]1CCOCCN1c1nc(OC[C@@]23CCCN2C[C@H](F)C3)nc2c(F)c(-c3ccc(F)c4sc(N)c(C#N)c34)c(Cl)cc12 [Ex. 6, 2-amino-4-(6-chloro-8-fluoro-2-(((2R,7aS)-2-fluorotetrahydro-1H-pyrrolizin-7a(5H)-yl)methoxy)-4-((S)-5-methyl-1,4-oxazepan-4-yl)quinazolin-7-yl)-7-fluorobenzo[b]thio-phene-3-carbonitrile] | 18.8 | 9490 | 2190 | 33.9 | 9.16 | 2.4 | 3.78 | 3.15 |
| N#Cc1c(N)sc2c(F)ccc(-c3ncc4c(N5CCCOCC5)nc(OC[C@@]56CCCN5C[C@H](F)C6)nc4c3F)c12 [Ex. 20, 2-amino-7-fluoro-4-(8-fluoro-2-(((2R,7aS)-2-fluorotetrahydro-1H-pyrrolizin-7a(5H)-yl)methoxy)-4-(1,4-oxazepan-4-yl)pyrido[4,3-d]pyrimidin-7-yl)benzo[b]thiophene-3-carbonitrile] | 510 | > 11100 | > 11100 | 1420 | 75.5 | 93.1 | 294 | 60 |
| CN(C)C[C@@]1(COc2nc(N3CCCOCC3)c3cc(Cl)c(-c4ccc(F)c5sc(N)c(C#N)c45)c(F)c3n2)CC1(F)F [Ex. 24, 2-amino-4-(6-chloro-2-(((R)-1-((dimethylamino)methyl)-2,2-difluorocyclopropyl)methoxy)-8-fluoro-4-(1,4-oxazepan-4-yl)quinazolin-7-yl)-7-fluorobenzo[b]thiophene-3-carbonitrile] | 93.1 | > 11100 | > 11100 | 233 | 30.4 | 28.8 | 51.8 | 9.52 |
| Cc1cc(N)nc(-c2c(Cl)cc3c(N4CCCCOCC4)nc(OC[C@@]45CCCN4C[C@H](F)C5)nc3c2F)c1C(F)(F)F [Ex. 39, 6-(6-chloro-8-fluoro-2-(((2R,7aS)-2-fluorotetrahydro-1H-pyrrolizin-7a(5H)-yl)methoxy)-4-(1,4-oxazocan-4-yl)quinazolin-7-yl)-4-methyl-5-(trifluoromethyl)pyridin-2-amine] | 422 | > 11100 | > 11100 | 1320 | 63.1 | 145 | 515 | 32.2 |
| Cc1cc2[nH]ncc2c(-c2c(F)cc3c(N4CCCOCC4)nc(OC[C@@]45CCCN4C[C@H](F)C5)nc3c2F)c1C(F)(F)F [Ex. 44, 4-(6,8-difluoro-2-(((2R,7aS)-2-fluorotetrahydro-1H-pyrrolizin-7a(5H)-yl)methoxy)-7-(6-methyl-5-(trifluoromethyl)-1H-indazol-4-yl)quinazolin-4-yl)-1,4-oxazepane] | 901 | > 11100 | > 11100 | 1300 | 96.3 | 365 | 505 | 235 |
